Assay results as given in US12551532B2, “Long-acting amylin receptor agonists and uses thereof” (Eli Lilly and Company, priority 2021, dated 2026).
Starred links: 1 amine or outer side, 2 acyl side, 3 side chain; linkers in the order of their positions; H or OH if unused. Positions of bridges follow the written chain, without caps; N, C: chain ends. Non-standard residues stand in square brackets, D forms with d. Residues, ends and D or L forms follow the SMILES beside them. Groups on a side chain read outwards from the residue. *: point of attachment. C20 diacid = O=C(O)CCCCCCCCCCCCCCCCCCC(=O)*; γGlu = O=C(O)[C@H](CCC(=O)[*:2])N[*:1]; Orn = NCCC[C@H](N)C(=O)O; AEEA = NCCOCCOCC(=O)O; Aib = CC(C)(N)C(=O)O; CH2 = C([*:1])[*:2]

Legend:
hAMY1R = target: T1, hAMY1R (Homo sapiens, UniProt O60894+P30988); test: hAMY1R cAMP functional activity (HTRF); assay type: cell-based; details: ±SE; UMUC3 cells overexpressing hAMY1R; relative EC50
T1 construct: expressed in transfected cells
T1 sequence (O60894 27-148 partner, one chain of several): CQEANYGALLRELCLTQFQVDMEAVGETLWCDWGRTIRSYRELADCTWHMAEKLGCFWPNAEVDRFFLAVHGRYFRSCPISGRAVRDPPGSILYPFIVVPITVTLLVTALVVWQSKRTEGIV
Description: (§1) The AMY1 and CT receptors are GPCRs that are functionally coupled to Gas proteins. […] In vitro activity of peptides is measured by the amount of cAMP formed in human AMY1R and CTR overexpressed cells.
Human AMY1R stable cell lines are generated by further transfecting human RAMP1-pCMVpuroPB (T14213) into UMUC3 hCTR clone cells. After selection, the mRNA levels human RAMP1 from different clones are measured to confirm the expression of human AMY1R.
(§2) hAMY1R cells are cultured in MEM 1× (Corning) supplemented with 10% FBS, 1% antibiotic/antimycotic solution, 1 mM sodium pyruvate, 1×MEM NEAA, 1× GlutaMAX-I, 200 μg/mL hygromycin B, and 0.4 μg/mL puromycin. The hCTR cells are cultured in the same medium lacking the puromycin. Cultured cells are grown to 70% confluency and then incubated overnight with fresh medium.
(§3) Peptides diluted in DMSO are added (200 nL/well) in a 1:3 dilution series using ECHO acoustic liquid handler (Beckman). Cultured cells are detached with TrypLE Express (Gibco), resuspended in assay buffer, and 10 μL containing 1200 cells/well (hCTR) or 1500 cells/well (hAMY1R) are dispensed into each well. The plates are incubated at room temperature for 1 hour.
(§4) The amount of intracellular cAMP is quantitated using HTRF technology (Homogeneous Time Resolved Fluorescence; Cisbio) as per vendor instructions. Briefly, 10 μL cAMP-d2 conjugate and 10 μL anti-cAMP-cryptate conjugate in lysis buffer are incubated with the treated cells at room temperature for 60 min. […] The raw data are converted to cAMP amount (pmol/well) using a cAMP standard curve generated for each experiment.

human CT receptors = target: T2, human CT receptors (Homo sapiens, UniProt P30988); test: hCTR cAMP functional activity (HTRF); assay type: cell-based; details: ±SE; UMUC3 cells overexpressing hCTR; relative EC50
T2 construct: expressed in transfected cells
T2 sequence (P30988 25-474): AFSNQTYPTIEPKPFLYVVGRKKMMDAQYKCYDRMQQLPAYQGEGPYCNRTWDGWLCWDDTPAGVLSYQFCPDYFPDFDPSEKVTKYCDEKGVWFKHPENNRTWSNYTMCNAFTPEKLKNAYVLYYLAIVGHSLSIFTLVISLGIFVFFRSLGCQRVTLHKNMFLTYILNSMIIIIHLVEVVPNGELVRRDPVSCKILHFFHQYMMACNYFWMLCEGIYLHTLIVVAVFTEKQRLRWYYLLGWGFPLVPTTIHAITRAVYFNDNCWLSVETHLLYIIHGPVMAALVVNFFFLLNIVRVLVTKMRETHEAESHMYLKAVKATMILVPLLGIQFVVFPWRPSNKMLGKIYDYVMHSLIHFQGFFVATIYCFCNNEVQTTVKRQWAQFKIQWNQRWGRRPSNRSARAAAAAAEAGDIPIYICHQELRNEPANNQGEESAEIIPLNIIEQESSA
Description: as §1
Human CT receptors are stably expressed in human urinary bladder cells (UM-UC-3, or UMUC3) under control of a pcDNA expression vector. […] After 20 days under selection, the mRNA levels from different clones are measured to confirm the expression of hCTR. To determine the function of over-expressed hCTR cells, the intracellular cAMP levels in response to salmon calcitonin are measured and compared to the expression of hCTR mRNA in each clone.
as §2, §3, §4

[1] = DIO rats: Compound II alone and in combination with incretin compounds; assay type: in vivo, Long Evans rats
Description: This study is conducted to investigate the effect of Compound II for diabetes and/or obesity conditions in DIO rats when administered in combination with other incretin compounds, including a GLP-1 agonist (Compound XVII), oxyntomodulin analog (Compound XVIII), and a triagonist of glucagon, GLP-1, and GIP (Compound XIX). Diet-induced obese (DIO) male Long Evans (Envigo) rats, maintained on a calorie rich diet since arrival at Lilly (TD95217; Teklad, Madison, WI), are used in the following studies. Animals are individually housed in a temperature-controlled (24° C.) facility with 12-hour light/dark cycle (lights on 2200) and free access to food (TD95217) and water.
The rats are randomized according to their body weight, so that each experimental group of animals would have similar body weight. The body weights range from 529 to 823 grams.
Each group contains five rats. […] SC injections are made on Days 1, 4, 7, 10 and 13. Body weight and food intake are measured daily throughout the study. Absolute changes in body weight are calculated by subtracting the body weight of the same animal prior to the first injection of molecule.
At the end of the study, blood is collected to measure blood glucose and plasma insulin. Blood glucose is measured by AccuChek glucometers (Roche, Indianapolis, IN). Insulin is measured by ELISA (MSD, Rockville, MD).
All data are presented as mean±SEM of 5 animals per group. Statistical analysis is performed using one-way ANOVA, followed by Tukey's multiple comparison test to compare treatment groups to vehicle group or each other. Significant differences are identified at p<0.05.

EC50 (hAMY1R) [nM]	EC50 (human CT receptors) [nM]	Compound	Body Weight Change ([1]; 10 nmol/kg SC Day 1, 4, 7, 10, 13, Day 1 to Day 14, mean±SEM) [g]	Cumulative Food Intake ([1]; 10 nmol/kg SC every three days, 14-day treatment period, mean±SEM) [g]
0.078 ± 0.014	9.49 ± 1.54	CC(C)C[C@H](NC(=O)[C@H](CCCN)NC(=O)CNC(=O)[C@@H](NC(=O)[C@H](C)NC(=O)[C@@H]1CSCSC[C@H](NC(=O)CC[C@H](N)C(=O)O)C(=O)NCC(=O)N[C@@H]([C@@H](C)O)C(=O)N[C@@H](C)C(=O)N[C@@H]([C@@H](C)O)C(=O)N1)[C@@H](C)O)C(=O)N[C@@H](C)C(=O)N[C@@H](CCC(=O)O)C(=O)N[C@@H](Cc1ccccc1)C(=O)N[C@@H](CC(C)C)C(=O)N[C@H](C(=O)N[C@@H](CCCNC(=N)N)C(=O)N[C@@H](CO)C(=O)N[C@@H](CO)C(=O)N[C@@H](CC(N)=O)C(=O)N[C@@H](CC(N)=O)C(=O)N[C@@H](Cc1ccccc1)C(=O)NCC(=O)N1CCC[C@H]1C(=O)N[C@@H](CCCCNC(=O)CC[C@H](NC(=O)CC[C@H](NC(=O)CCCCCCCCCCCCCCCCCCC(=O)O)C(=O)O)C(=O)O)C(=O)N[C@@H](CC(C)C)C(=O)N1CCC[C@H]1C(=O)N1CCC[C@H]1C(=O)N[C@H](C(=O)N[C@@H](CCC(=O)O)C(=O)N[C@H](C(=O)NCC(=O)N[C@@H](CO)C(=O)N[C@@H](CC(N)=O)C(=O)N[C@H](C(=O)N[C@@H](Cc1ccc(O)cc1)C(N)=O)[C@@H](C)O)C(C)C)[C@@H](C)O)C(C)C [Compound XIII] (γGlu-CGTATCATG[Orn]LAEFLVRSSNNFGPK([γGlu-γGlu-C20 diacid])LPPTEVGSNTY-NH2; linker 1-6 via CH2)		
0.113 ± 0.034	25.9 ± 7.62	CC(C)C[C@H](NC(=O)[C@H](CCCN)NC(=O)[C@H](CCC(N)=O)NC(=O)[C@@H](NC(=O)[C@H](C)NC(=O)[C@@H]1CSCSC[C@H](NC(=O)CC[C@H](N)C(=O)O)C(=O)N[C@@H](CC(N)=O)C(=O)N[C@@H]([C@@H](C)O)C(=O)N[C@@H](C)C(=O)N[C@@H]([C@@H](C)O)C(=O)N1)[C@@H](C)O)C(=O)N[C@@H](C)C(=O)N[C@@H](CCC(=O)O)C(=O)N[C@@H](Cc1ccccc1)C(=O)N[C@@H](CC(C)C)C(=O)N[C@H](C(=O)N[C@@H](CCCNC(=N)N)C(=O)N[C@@H](CO)C(=O)N[C@@H](CO)C(=O)N[C@@H](CC(N)=O)C(=O)N[C@@H](CC(N)=O)C(=O)N[C@@H](Cc1ccccc1)C(=O)NCC(=O)N1CCC[C@H]1C(=O)N[C@@H](CCCCNC(=O)COCCOCCNC(=O)COCCOCCNC(=O)CC[C@H](NC(=O)CCCCCCCCCCCCCCCCCCC(=O)O)C(=O)O)C(=O)N[C@@H](CC(C)C)C(=O)N1CCC[C@H]1C(=O)N1CCC[C@H]1C(=O)N[C@H](C(=O)N[C@@H](CCC(=O)O)C(=O)N[C@H](C(=O)NCC(=O)N[C@@H](CO)C(=O)N[C@@H](CC(N)=O)C(=O)N[C@H](C(=O)N[C@@H](Cc1ccc(O)cc1)C(N)=O)[C@@H](C)O)C(C)C)[C@@H](C)O)C(C)C [Compound XII] (γGlu-CNTATCATQ[Orn]LAEFLVRSSNNFGPK([AEEA-AEEA-γGlu-C20 diacid])LPPTEVGSNTY-NH2; linker 1-6 via CH2)		
0.038 ± 0.0078	10.5 ± 2.2	CC(C)C[C@H](NC(=O)[C@H](CCCCN)NC(=O)CNC(=O)[C@@H](NC(=O)[C@H](C)NC(=O)[C@@H]1CSCSC[C@H](NC(=O)CC[C@H](N)C(=O)O)C(=O)N[C@@H](CC(N)=O)C(=O)N[C@@H]([C@@H](C)O)C(=O)N[C@@H](C)C(=O)N[C@@H]([C@@H](C)O)C(=O)N1)[C@@H](C)O)C(=O)N[C@@H](C)C(=O)N[C@@H](CCC(=O)O)C(=O)N[C@@H](Cc1ccccc1)C(=O)N[C@@H](CC(C)C)C(=O)N[C@H](C(=O)N[C@@H](CCCNC(=N)N)C(=O)N[C@@H](CO)C(=O)N[C@@H](CO)C(=O)N[C@@H](CC(N)=O)C(=O)N[C@@H](CC(N)=O)C(=O)N[C@@H](Cc1ccccc1)C(=O)NCC(=O)N1CCC[C@H]1C(=O)N[C@@H](CCCCNC(=O)CC[C@H](NC(=O)CC[C@H](NC(=O)COCCOCCNC(=O)CCCCCCCCCCCCCCCCCCC(=O)O)C(=O)O)C(=O)O)C(=O)N[C@@H](CC(C)C)C(=O)N1CCC[C@H]1C(=O)N1CCC[C@H]1C(=O)N[C@H](C(=O)N[C@@H](CCC(=O)O)C(=O)N[C@H](C(=O)NCC(=O)N[C@@H](CO)C(=O)N[C@@H](CC(N)=O)C(=O)N[C@H](C(=O)N[C@@H](Cc1ccc(O)cc1)C(N)=O)[C@@H](C)O)C(C)C)[C@@H](C)O)C(C)C [Compound XI] (γGlu-CNTATCATGKLAEFLVRSSNNFGPK([γGlu-γGlu-AEEA-C20 diacid])LPPTEVGSNTY-NH2; linker 1-6 via CH2)		
0.08 ± 0.013	14 ± 3.32	CC(C)C[C@H](NC(=O)[C@H](CCCCN)NC(=O)CNC(=O)[C@@H](NC(=O)[C@H](C)NC(=O)[C@@H]1CSCSC[C@H](NC(=O)CC[C@H](N)C(=O)O)C(=O)N[C@@H](CC(N)=O)C(=O)N[C@@H]([C@@H](C)O)C(=O)N[C@@H](C)C(=O)N[C@@H]([C@@H](C)O)C(=O)N1)[C@@H](C)O)C(=O)N[C@@H](C)C(=O)N[C@@H](CCC(=O)O)C(=O)N[C@@H](Cc1ccccc1)C(=O)N[C@@H](CC(C)C)C(=O)N[C@H](C(=O)N[C@@H](CCCNC(=N)N)C(=O)N[C@@H](CO)C(=O)N[C@@H](CO)C(=O)N[C@@H](CC(N)=O)C(=O)N[C@@H](CC(N)=O)C(=O)N[C@@H](Cc1ccccc1)C(=O)NCC(=O)N1CCC[C@H]1C(=O)N[C@@H](CCCCNC(=O)CC[C@H](NC(=O)COCCOCCNC(=O)COCCOCCNC(=O)CCCCCCCCCCCCCCCCCCC(=O)O)C(=O)O)C(=O)N[C@@H](CC(C)C)C(=O)N1CCC[C@H]1C(=O)N1CCC[C@H]1C(=O)N[C@H](C(=O)N[C@@H](CCC(=O)O)C(=O)N[C@H](C(=O)NCC(=O)N[C@@H](CO)C(=O)N[C@@H](CC(N)=O)C(=O)N[C@H](C(=O)N[C@@H](Cc1ccc(O)cc1)C(N)=O)[C@@H](C)O)C(C)C)[C@@H](C)O)C(C)C [Compound X] (γGlu-CNTATCATGKLAEFLVRSSNNFGPK([γGlu-AEEA-AEEA-C20 diacid])LPPTEVGSNTY-NH2; linker 1-6 via CH2)		
		H-Aib-QGTFTSDYSKYLDEKKAK((2-[2-(2-Amino-ethoxy)-ethoxy]-acetyl)2-(γGlu)-CO-(CH2)18-CO2H)EFVEWLLEGGPSSG-NH2 (H-H[Aib]QGTFTSDYSKYLDEKKAK([AEEA-AEEA-γGlu-C20 diacid])EFVEWLLEGGPSSG-NH2) [Compound XVIII, oxyntomodulin analog]	-50.24 ± 6.36	165.86 ± 7.45
